Measured values as given in article PMC10451377, “Rationally Designed Pyrimidine Compounds: Promising Novel Antibiotics for the Treatment of Staphylococcus aureus-Associated Bovine Mastitis” (Antibiotics, 2023).
In brackets after ≈: the same amount, converted by molar mass.

Legend:
Chemical stability = assay type: physicochemical
[1] = test system: all reference staphylococci strains tested, including MRSA; assay: Broth microdilution MIC, summary over reference staphylococci; conditions: Staphylococcus aureus, read-out: MIC ranging, against all reference staphylococci strains tested
MRSA = assay: Susceptibility of isolate panel (MIC50, MIC90, range); assay type: cell-based, Staphylococcus aureus; conditions: 42 isolates
From the text: (§1) Reference strains for this study (S. aureus ATCC 29213, ATCC 29740 [bovine mastitis strain Newbould], S. epidermidis ATCC 12228, E. coli ATCC 35695, E. faecalis ATCC 29212) were obtained from the American Type Culture Collection (ATCC, Rockville, MD). S. aureus strains CMRSA-10 and CMRSA-2 were obtained from the Laboratoire de santé publique du Québec (LSPQ, Sainte-Anne-de-Bellevue, QC, Canada) and are Canadian CA-MRSA USA-300 and HA-MRSA USA-100 clones, respectively. The strain E. coli imp4213 (lptD), used as a control in MIC assays, is a derivative of E. coli ATCC 35695 (E. coli MC4100) with an increased membrane permeability. […] Other MRSA strains used in this study are clinical isolates of human origin obtained from the microbiology laboratory of the Centre Hospitalier Universitaire de Sherbrooke (CHUS, Sherbrooke, QC, Canada). Bovine mastitis strains (S. aureus, S. chromogenes, S. haemolyticus, S. hominis, S. simulans) were obtained from the Canadian Bovine Mastitis and Milk Quality Research Network (CBRQMN, St-Hyacinthe, QC, Canada). Among these strains, S. aureus 2117 is a high producer of biofilm and was used in the biofilm-eradication assay. S. epidermidis isolates were provided by Centre de Recherche en Infectiologie (CRI) de Québec (Québec, QC, Canada).
(§2) The antibacterial activity of the most promising compound, PC206, was also evaluated against larger groups of clinical isolates of human and animal origin. The MIC50 and MIC90 values represented the concentrations of drug required to inhibit the growth of 50% and 90% of the bacterial strains tested, respectively.

Bovine S. aureus = assay: as above; assay type: cell-based, Staphylococcus aureus; conditions: Bovine S. aureus, 48 isolates
From the text: as §1, §2

MTT assay [2] = assay type: cell-based; conditions: bovine, MAC-T cells
[3] = test system: Enterococcus faecalis ATCC 29212; assay: Broth microdilution MIC; conditions: ATCC29212, read-out: Broth Microdilution MIC
MTT assay [4] = assay type: cell-based; conditions: human, HepG2 cells
LDH release assay = assay type: cell-based; conditions: human, HepG2 cells
Metabolic stability = assay type: in vitro ADME; conditions: mouse, CD-1 female mice liver S9 fraction, 60 min, mono-exponential decay model, read-out: Half-life (T1/2)
Procedure: All incubations were performed minimally in triplicate. A total of 1 mL of mice liver S9 fraction (XenoTech, Kansas City, KS, USA) was fortified with 50 μL of NADPH-regenerating solution A and 10 μL of solution B (Corning BD Biosciences catalog no. 451200) and preincubated at 37 °C for 5 min prior to the addition of PC206. Immediately after fortification of PC206 into the mice liver S9 fraction containing the NADPH-regeneration system, the sampling points were taken at 2, 5, 10, 15, 30, 45 and 60 min for metabolic stability experiments (i.e., the substrate concentration was 10 μM). Samples of 50 μL were taken and mixed with 250 μL of the internal standard solution (caffeine) in microcentrifuge tubes. The samples were centrifuged at 12,000× g for 10 min and 200 μL of the supernatant was transferred into an injection vial for HPLC-MS analysis. A Q Exactive Orbitrap Mass Spectrometer was interfaced with a Vanquish Flex UHPLC system (Thermo Fisher Scientific, Rochester, NY, USA). […] Targeted drug quantification was performed by MS detection using specific precursor masses based on monoisotopic masses (i.e., [M + H]^+ ions). Quantification was performed by extracting specific precursor ions using a 5 ppm mass window.

[5] = Staphylococcus aureus, read-out: MIC50
[6] = Staphylococcus aureus, read-out: MIC90

For CCCCCCNc1cc(N)nc(N)n1 [PC206], which Stability in solution (Chemical stability) is on record?
Its Stability in solution is “remains stable in solution”.

What about the MIC [1] of the same compound?
The MIC was 4 to 8 µg/mL (≈ 19.1 to 38.2 µM).

What about the “MIC Range” value (MRSA) of the same compound?
The value was 2 to 128 µg/mL.

What about the MIC50 (MRSA; [5]) of the same compound?
Its MIC50 is 8 µg/mL (≈ 38.2 µM).

And the MIC90 (MRSA; [6])?
Its MIC90 is 16 µg/mL (≈ 76.4 µM).

What about the “MIC Range” value (Bovine S. aureus) of the same compound?
The value was 0.5 to 64 µg/mL.

And the MIC50 (Bovine S. aureus; [5])?
The MIC50 was 8 µg/mL (≈ 38.2 µM).

What about the MIC90 (Bovine S. aureus; [6]) of the same compound?
The MIC90 was 16 µg/mL (≈ 76.4 µM).

And the CC50 at 24 h (MTT assay [2]; 24 h)?
The CC50 at 24 h was 317 ± 43 µM.

What about the CC50 at 24 h (MTT assay [2]; converted from μM) of the same compound?
The CC50 at 24 h was 66 µg/mL.

What about the MIC [3] of the same compound?
Its MIC is 128 µg/mL (≈ 612 µM).

What about the CC50 at 24 h (MTT assay [4]) of the same compound?
Its CC50 at 24 h is 160 ± 31 µM.

And the CC50 at 24 h (LDH release assay)?
The CC50 at 24 h was 149 ± 24 µM.

And the half-life at 10 µM (Metabolic stability)?
Its half-life at 10 µM is 1.39 h.
